Measurements taken from US20260306640A1, “TECHNOLOGIES TARGETING CELL STATES” (Auron Therapeutics, Inc., priority 2023, published 2026).

Key:
Type in all cases: cell-based
KAT2A [1] = molecular target: T1, KAT2A (Homo sapiens, UniProt Q92830); test: KAT2A degradation, Western Blot (Jess), MOLM-13 cells; design: degrader, Western blot; conditions: MOLM-13 cells, KAT2A, 24 h, Western Blot, vs DMSO; read-out: KAT2A MOLM-13 DC50
Description: MOLM-13 cells or NCI-H1048 cells were used for Western Blot analysis of KAT2A degradation. KAT2B degradation can be measured in a similar manner with NCI-H1048 cells.
MOLM-13 cells were maintained at 37° C. in 5% CO2 and 90% humidity in RPMI 1640 supplemented with 20% fetal bovine serum (FBS) and 1× penicillin/streptomycin. Cells were plated in full media at 1-2 million cells/2 mL in a 6-well tissue culture treated plate with or without compounds for 24 h at 37° C. in 5% CO2.
MOLM-13 cells or NCI-H1048 cells were washed with PBS, then lysed with RIPA buffer containing 1×protease and phosphatase inhibitors (SantaCruz Biotechnologies Cat #sc-24948A). Protein was isolated by centrifugation at 12,000×g for 10 minutes at 4° C. and supernatant was collected. Protein was quantified via Bradford assay. Samples were diluted to 4 μg lysate in 16 μL RIPA buffer and then 4 μL of Jess Sample Buffer. Samples were heated at 95° C. for 5 minutes. Samples were loaded onto 12-230 kDa Jess™ Separation Module, 8×25 capillary cartridges (SM-W004, Biotechne). Antibodies loaded were: Primary antibody for KAT2A (GCN5L2 (C26A10) Rabbit mAb (3305, CST)) and for KAT2B (PCAF (C14G9)) Rabbit mAb (3378, CST) at 1:1000 and Anti-Rabbit Detection Module for Jess™ (Cat No #DM-001, Biotechne). Signal was detected by chemiluminescence.
DC50 values were determined from percent reduction of protein as compared to the DMSO control.

KAT2A [2] = molecular target: T1, KAT2A; test: KAT2A degradation, Western Blot (Jess), NCI-H1048 cells; design: degrader, Western blot (Jess); conditions: NCI-H1048 cells, KAT2A, 24 h, Western Blot, vs DMSO; read-out: KAT2A NCI-H1048 DC50
How it was run: (§1)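 NCI-H1048 cells grown in HITES medium with 5% FBS were treated with compounds for 24 h at 37° C. Lysates were run by capillary Western (Jess) with KAT2A or KAT2B antibodies and chemiluminescent detection. DC50 derived from percent protein reduction versus DMSO control.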

KAT2B = KAT2B (Homo sapiens, UniProt Q92831); test: KAT2B degradation, Western Blot (Jess), NCI-H1048 cells; design: degrader, Western blot (Jess); conditions: NCI-H1048 cells, KAT2B, 24 h, Western Blot, vs DMSO; read-out: KAT2B NCI-H1048 DC50
Chain of KAT2B (Q92831 whole entry): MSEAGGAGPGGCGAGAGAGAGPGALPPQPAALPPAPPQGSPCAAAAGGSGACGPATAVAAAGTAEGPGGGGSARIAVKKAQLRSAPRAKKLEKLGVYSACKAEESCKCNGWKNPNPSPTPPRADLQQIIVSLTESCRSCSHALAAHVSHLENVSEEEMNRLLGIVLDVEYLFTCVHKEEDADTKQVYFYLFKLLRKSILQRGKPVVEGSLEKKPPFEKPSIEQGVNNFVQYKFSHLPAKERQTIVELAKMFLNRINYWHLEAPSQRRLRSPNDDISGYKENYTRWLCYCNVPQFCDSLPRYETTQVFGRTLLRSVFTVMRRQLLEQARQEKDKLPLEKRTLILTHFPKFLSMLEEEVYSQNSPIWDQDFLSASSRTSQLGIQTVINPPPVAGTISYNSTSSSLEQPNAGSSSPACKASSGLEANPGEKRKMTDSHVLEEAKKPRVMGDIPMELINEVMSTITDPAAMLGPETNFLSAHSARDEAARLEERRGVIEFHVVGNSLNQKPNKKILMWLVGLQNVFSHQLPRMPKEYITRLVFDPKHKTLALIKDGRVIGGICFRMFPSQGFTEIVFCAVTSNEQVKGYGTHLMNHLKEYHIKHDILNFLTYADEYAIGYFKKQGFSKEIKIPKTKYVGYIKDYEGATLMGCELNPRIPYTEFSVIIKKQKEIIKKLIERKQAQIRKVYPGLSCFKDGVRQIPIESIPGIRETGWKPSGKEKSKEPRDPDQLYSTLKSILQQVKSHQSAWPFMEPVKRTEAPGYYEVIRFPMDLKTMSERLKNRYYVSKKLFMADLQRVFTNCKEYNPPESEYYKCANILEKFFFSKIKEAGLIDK
How it was run: as §1

T1 sequence (Q92830 whole entry): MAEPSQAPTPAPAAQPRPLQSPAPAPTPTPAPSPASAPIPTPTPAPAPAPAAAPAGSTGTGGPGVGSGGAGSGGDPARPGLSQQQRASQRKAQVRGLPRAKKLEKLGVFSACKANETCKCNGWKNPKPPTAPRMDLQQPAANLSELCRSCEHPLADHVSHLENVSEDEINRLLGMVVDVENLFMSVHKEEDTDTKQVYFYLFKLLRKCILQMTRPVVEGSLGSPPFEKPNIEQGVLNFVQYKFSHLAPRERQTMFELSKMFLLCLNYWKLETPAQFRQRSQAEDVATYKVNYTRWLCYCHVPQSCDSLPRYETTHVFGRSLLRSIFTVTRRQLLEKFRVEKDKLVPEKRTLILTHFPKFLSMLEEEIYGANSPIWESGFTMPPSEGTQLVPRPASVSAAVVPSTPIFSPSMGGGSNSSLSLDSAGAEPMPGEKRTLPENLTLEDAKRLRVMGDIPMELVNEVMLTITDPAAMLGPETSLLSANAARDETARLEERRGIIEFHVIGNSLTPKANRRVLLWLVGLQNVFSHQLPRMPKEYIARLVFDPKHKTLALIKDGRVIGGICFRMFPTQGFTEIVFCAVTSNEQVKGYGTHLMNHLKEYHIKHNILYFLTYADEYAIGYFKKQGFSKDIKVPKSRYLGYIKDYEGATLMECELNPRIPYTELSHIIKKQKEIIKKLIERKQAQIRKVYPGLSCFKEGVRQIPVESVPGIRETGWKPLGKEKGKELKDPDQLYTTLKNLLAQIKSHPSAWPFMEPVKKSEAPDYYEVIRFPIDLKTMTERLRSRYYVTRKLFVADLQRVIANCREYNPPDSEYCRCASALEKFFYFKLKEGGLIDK

| Compound | DC50 (KAT2A [1]) | DC50 (KAT2A [2]) | DC50 (KAT2B) |
| --- | --- | --- | --- |
| CN1C[C@H](Nc2cnn(C)c(=O)c2Br)C[C@H](c2ccc(C(=O)NCCCCCCCCCC(=O)Nc3ccc4c(c3)CN(C3CCC(=O)NC3=O)C4=O)cc2)C1 (stereo partly drawn) [Compound 3] | < 1 nM |  |  |
| CN1C[C@H](Nc2cnn(C)c(=O)c2Br)C[C@H](c2ccc(C(=O)NCCOCC(=O)Nc3ccc4c(c3)CN(C3CCC(=O)NC3=O)C4=O)cc2)C1 (stereo partly drawn) [Compound 4] | > 30 nM |  |  |
| CN1C[C@H](Nc2cnn(C)c(=O)c2Br)C[C@H](c2ccc(C(=O)NCCCCCCOCCOCC(=O)Nc3cccc4c3C(=O)N(C3CCC(=O)NC3=O)C4=O)cc2)C1 (stereo partly drawn) [Compound 12] | 1 to 30 nM |  |  |
| CN1C[C@H](Nc2cnn(C)c(=O)c2Br)C[C@H](c2ccc(C(=O)N(C)c3cccc(Oc4cccc5c4C(=O)N(C4CCC(=O)NC4)C5=O)c3)cc2)C1 (stereo partly drawn) [Compound 26] | 1 to 30 nM |  |  |
| Cc1ncsc1-c1ccc(CNC(=O)[C@@H]2C[C@@H](O)CN2C(=O)[C@@H](NC(=O)COCCOCCNC(=O)c2ccc(C3CC(Nc4cnn(C)c(=O)c4Br)CN(C)C3)cc2)C(C)(C)C)cc1 (stereo partly drawn) [Compound 423] |  | > 30 nM | > 30 nM |
| Cn1ncc(N[C@@H]2C[C@H](c3ccc(C(=O)N4CCC5(CC4)CCN(c4ccc(C6CCC(=O)NC6=O)cc4)CC5)cc3)CN(C3CC3)C2)c(Br)c1=O (stereo partly drawn) [Compound 424, 3-(4-(9-(4-((3R,5R)-5-((5-bromo-1-methyl-6-oxo-1,6-dihydropyridazin-4-yl)amino)-1-cyclopropylpiperidin-3-yl)benzoyl)-3,9-diazaspiro[5.5]undecan-3-yl)phenyl)piperidine-2,6-dione] |  | > 30 nM | > 30 nM |
| Cn1ncc(N[C@@H]2C[C@H](c3ccc(C(=O)N4CCC5(CC4)CCN(c4ccc(C6CCC(=O)NC6=O)cc4)CC5)cc3)CN(CC3CC3)C2)c(Br)c1=O (stereo partly drawn) [Compound 425, 3-[4-[3-[4-[(3R,5R)-5-[(5-bromo-1-methyl-6-oxo-pyridazin-4-yl)amino]-1-(cyclopropylmethyl)-3-piperidyl]benzoyl]-3,9-diazaspiro[5.5]undecan-9-yl]phenyl]piperidine-2,6-dione] |  | < 1 nM | < 1 nM |
| CN1C[C@H](Nc2nc3cc[nH]c3c(=O)n2C)C[C@H](c2ccc(C(=O)N3CCC4(CC3)CCN(c3ccc(C5CCC(=O)NC5=O)cc3)CC4)cc2)C1 (stereo partly drawn) [Compound 427, 3-(4-(9-(4-((3R,5R)-1-methyl-5-((3-methyl-4-oxo-4,5-dihydro-3H-pyrrolo[3,2-d]pyrimidin-2-yl)amino)piperidin-3-yl)benzoyl)-3,9-diazaspiro[5.5]undecan-3-yl)phenyl)piperidine-2,6-dione] |  | < 1 nM | < 1 nM |
| C[C@H](Nc1nn(C)c(=O)c2cccnc12)[C@H](c1ccc(C(=O)N2CCC3(CC2)CCN(c2ccc(C4CCC(=O)NC4=O)cc2)CC3)cc1)N(C)C (stereo partly drawn) [Compound 429, 3-(4-(9-(4-((1S,2S)-1-(dimethylamino)-2-((6-methyl-5-oxo-5,6-dihydropyrido[2,3-d]pyridazin-8-yl)amino)propyl)benzoyl)-3,9-diazaspiro[5.5]undecan-3-yl)phenyl)piperidine-2,6-dione] |  | < 1 nM | 1 to 30 nM |
| C[C@H](Nc1nn(C)c(=O)c2ncccc12)[C@H](c1ccc(C(=O)N2CCC3(CC2)CCN(c2ccc(C4CCC(=O)NC4=O)cc2)CC3)cc1)N(C)C (stereo partly drawn) [Compound 430, 3-(4-(9-(4-((1S,2S)-1-(dimethylamino)-2-((7-methyl-8-oxo-7,8-dihydropyrido[2,3-d]pyridazin-5-yl)amino)propyl)benzoyl)-3,9-diazaspiro[5.5]undecan-3-yl)phenyl)-piperidine-2,6-dione] |  | < 1 nM | > 30 nM |
| C[C@H](Nc1nn(C)c(=O)c2ccccc12)[C@H](c1ccc(C(=O)N2CCC3(CC2)CCN(c2ccc(C4CCC(=O)NC4=O)cc2)CC3)cc1)N(C)C (stereo partly drawn) [Compound 432, 3-(4-(9-(4-((1S,2S)-1-(dimethylamino)-2-((3-methyl-4-oxo-3,4-dihydro-phthalazin-1-yl)amino)propyl)benzoyl)-3,9-diazaspiro[5.5]undecan-3-yl)phenyl)piperid-ine-2,6-dione] |  | < 1 nM | > 30 nM |
| CN1C[C@H](Nc2cnn(C)c(=O)c2Br)C[C@H](c2ccc(COc3ccc4c(=O)n(C5CCC(=O)NC5=O)ccc4c3)cc2)C1 (stereo partly drawn) [Compound 433, 3-(6-((4-((3R,5R)-5-((5-bromo-1-methyl-6-oxo-1,6-dihydropyridazin-4-yl)amino)-1-methylpiperidin-3-yl)benzyl)oxy)-1-oxoisoquinolin-2(1H)-yl)piperidine-2,6-dione] |  | < 1 nM | 1 to 30 nM |
| CN1C[C@H](Nc2cnn(C)c(=O)c2Br)C[C@H](c2ccc(N3CCC(Oc4cccc(C5CCC(=O)NC5=O)c4)CC3)cc2)C1 (stereo partly drawn) [Compound 434, 3-(3-((1-(4-((3R,5R)-5-((5-bromo-1-methyl-6-oxo-1,6-dihydropyridazin-4-yl)amino)-1-methylpiperidin-3-yl)phenyl)piperidin-4-yl)oxy)phenyl)piperidine-2,6-dione] |  | < 1 nM | < 1 nM |
| CN1C[C@H](Nc2cnn(C)c(=O)c2Br)C[C@H](c2ccc(CN3CCN(c4cccc(OC5CCC(=O)NC5=O)c4)CC3)cc2)C1 (stereo partly drawn) [Compound 435, 3-(3-(4-(4-((3R,5R)-5-((5-bromo-1-methyl-6-oxo-1,6-dihydropyridazin-4-yl)amino)-1-methylpiperidin-3-yl)benzyl)piperazin-1-yl)phenoxy)piperidine-2,6-dione] |  | > 30 nM | > 30 nM |
| Cc1cc(N2CCC3(CCN(c4ccc([C@H]5C[C@@H](Nc6cnn(C)c(=O)c6Br)CN(C)C5)cc4)CC3)CC2)ccc1C1CCC(=O)NC1=O (stereo partly drawn) [Compound 436, 3-(4-(9-(4-((3R,5R)-5-((5-bromo-1-methyl-6-oxo-1,6-dihydropyridazin-4-yl)amino)-1-methylpiperidin-3-yl)phenyl)-3,9-diazaspiro[5.5]undecan-3-yl)-2-methylphenyl)piperidine-2,6-dione] |  | < 1 nM | 1 to 30 nM |

Now from value to compound:

| DC50 (KAT2A [1]) | DC50 (KAT2A [2]) | DC50 (KAT2B) | Compound |
| --- | --- | --- | --- |
| 1 to 30 nM |  |  | CN1C[C@H](Nc2cnn(C)c(=O)c2Br)C[C@H](c2ccc(C(=O)N(C)c3ccc(Oc4cccc5c4C(=O)N(C4CCC(=O)NC4=O)C5=O)cc3)cc2)C1 (stereo partly drawn) [Compound 1] |
| 1 to 30 nM |  |  | CN1C[C@H](Nc2cnn(C)c(=O)c2Br)C[C@H](c2ccc(C(=O)N(C)c3ccc(CCCOc4cccc5c4C(=O)N(C4CCC(=O)NC4=O)C5=O)cc3)cc2)C1 (stereo partly drawn) [Compound 2] |
| 1 to 30 nM |  |  | CN1C[C@H](Nc2cnn(C)c(=O)c2Br)C[C@H](c2ccc(C(=O)N3CCC(C#CC(=O)Nc4ccc5c(c4)CN(C4CCC(=O)NC4=O)C5=O)CC3)cc2)C1 (stereo partly drawn) [Compound 5] |
| < 1 nM |  |  | CN1C[C@H](Nc2cnn(C)c(=O)c2Br)C[C@H](c2ccc(C(=O)N3CCN(Cc4ccc(C(=O)Nc5cccc6c5C(=O)N(C5CCC(=O)NC5=O)C6=O)cc4)CC3)cc2)C1 (stereo partly drawn) [Compound 6] |
| 1 to 30 nM |  |  | CN1C[C@H](Nc2cnn(C)c(=O)c2Br)C[C@H](c2ccc(C(=O)N3CCN(CCOCCC(=O)Nc4cccc5c4C(=O)N(C4CCC(=O)NC4=O)C5=O)CC3)cc2)C1 (stereo partly drawn) [Compound 7] |
| 1 to 30 nM |  |  | CN1C[C@H](Nc2cnn(C)c(=O)c2Br)C[C@H](c2ccc(C(=O)N(C)CCCCC#CCCCOc3cccc4c3C(=O)N(C3CCC(=O)NC3=O)C4=O)cc2)C1 (stereo partly drawn) [Compound 8] |
| < 1 nM |  |  | CN1C[C@H](Nc2cnn(C)c(=O)c2Br)C[C@H](c2ccc(C(=O)N3CCN(CC4CCN(c5cccc6c5C(=O)N(C5CCC(=O)NC5=O)C6=O)CC4)CC3)cc2)C1 (stereo partly drawn) [Compound 9] |
| 1 to 30 nM |  |  | CN1C[C@H](Nc2cnn(C)c(=O)c2Br)C[C@H](c2ccc(C(=O)N3CCC(C(=O)N4CCN(c5cccc6c5C(=O)N(C5CCC(=O)NC5=O)C6=O)CC4)CC3)cc2)C1 (stereo partly drawn) [Compound 10] |
| 1 to 30 nM |  |  | CN1C[C@H](Nc2cnn(C)c(=O)c2Br)C[C@H](c2ccc(C(=O)N(C)C3CCN(c4cccc5c4C(=O)N(C4CCC(=O)NC4=O)C5=O)CC3)cc2)C1 (stereo partly drawn) [Compound 13] |
| < 1 nM |  |  | CN1C[C@H](Nc2cnn(C)c(=O)c2Br)C[C@H](c2ccc(C(=O)N3CCN(c4cccc5c4C(=O)N(C4CCC(=O)NC4=O)C5=O)CC3)cc2)C1 (stereo partly drawn) [Compound 14] |
| 1 to 30 nM |  |  | CN1C[C@H](Nc2cnn(C)c(=O)c2Br)C[C@H](c2ccc(C(=O)NC3CCN(c4cccc5c4C(=O)N(C4CCC(=O)NC4=O)C5=O)CC3)cc2)C1 (stereo partly drawn) [Compound 15] |
| 1 to 30 nM |  |  | CN1C[C@H](Nc2cnn(C)c(=O)c2Br)C[C@H](c2ccc(C(=O)N3CCC(Oc4cccc5c4C(=O)N(C4CCC(=O)NC4=O)C5=O)CC3)cc2)C1 (stereo partly drawn) [Compound 19] |
| < 1 nM |  |  | CN1C[C@H](Nc2cnn(C)c(=O)c2Br)C[C@H](c2ccc(C(=O)N3CCN(Cc4ccc5c(c4)C(=O)N(C4CCC(=O)NC4=O)C5=O)CC3)cc2)C1 (stereo partly drawn) [Compound 25] |
